Entries after “also recorded” stand apart in the source; their conditions may differ.
Key:
Spinaglioma cells SP0001 = experiment: CCK8 cell proliferation inhibition, spinaglioma cells SP0001; format: cell-based, human; details: for growth inhibition / killing effect on SP0001 cells: CCK8, cytarabine 24, 48, 96 hours, BS 24, 48 hours
Experimental: (§1) Spinaglioma cells SP0001 in a logarithmic growth phase were digested with trypsin and centrifuged to obtain a cell precipitate, and cells were counted after being re-suspended in a complete medium. Based on the count results, the cells SP0001 were inoculated into a 96-well cell culture plate with 5000 cells per well and cultured in a 37° C. incubator in a 5% CO2 environment. After 24 hours, the cells were treated with drugs. Atemozolomide (TMZ) compound and a benzisoselenazole compound (BS) of the present invention were respectively dissolved in DMSO to prepare a stock solution, which was then dissolved with the complete medium to different drug concentrations. The gradient concentrations of TMZ were 0, 100, 150, 200, 250, 300, 350, and 400 μM. The gradient concentrations of BS were 0, 1, 2, 3, 4, 5, 6, 7, and 8 μM. The medium was removed from the wells, and the corresponding drug solution of each concentration was added with 100 μL per well.
[…] When testing, a CCK8 working solution was prepared in advance, namely, an appropriate volume of working solution was prepared based on 100 μL serum-free medium and 10 μL CCK8 per well, and the working solution was placed in dark. The well plate was taken out of the incubator, the cell medium was removed from the wells to be tested, 110 μL of CCK8 working solution was added to each well, the incubation was continued for 2 hours, then the absorbance at 450 nm was measured on an enzyme-linked immunosorbent assay (ELISA) reader, an inhibition rate corresponding to each concentration was calculated, and IC50 values at corresponding time were calculated using GraphPad 7.0 software.
This example measured the killing effects of a cytarabine compound and the BS compound of the present invention on two types of spinaglioma cell lines SCA-S01 and SP0001, using the same method as Example 1.

[1] = Body weight and toxicity in tumor-bearing NPG mice; format: in vivo, NPG immunodeficient mice; details: for toxic and side effects on NPG mice: intragastric once a day, 24 days, BS: BSM and BSH groups, TMZ 30 mg/Kg
Experimental: (§2) First, a tumor-bearing mouse model was built. Female NPG immunodeficient mice (6-8 weeks, starting weight 16-21 g, purchased from Beijing Vitalstar Biotechnology Co., Ltd.) were used for experimental research. The animals were raised and operated under sterile conditions, and all animal experiments were conducted in accordance with the international guidelines for animal experimentation. SP0001 human-derived spinaglioma tumor blocks (2-3 mm^3) were prepared and inoculated subcutaneously to the right ventrodorsal side of each NPG mouse. After inoculation, the status of the mice was observed, and the size of the tumor was measured. The animals with a tumor volume of 40 mm^3 were selected for experiment, and the animals that had too large tumor and no tumor were not selected. A total of 40 suitable tumor-bearing animals were selected for the experiment and divided into 5 experimental groups, with 8 mice in each group. The first day of administration was recorded as D1, the second day of administration was recorded as D2, and so on. All the animals were administered intragastrically once a day for 24 consecutive days. […] In the experiment, the physiological saline group was used as a negative control, and the temozolomide (TMZ) treatment group was used as a positive control.
During the experiment, no clinical abnormal symptoms or animal deaths due to drug toxicity were observed.
The histogram of the weight change rate of NPG mice after administration was shown in FIG. 9 (BSL, BSM, and BSH represent a low dose group 90 mg/Kg, a medium dose group 180 mg/Kg, and a high dose group 360 mg/Kg of the drug BS respectively).

[2] = test system: SP0001 human-derived spinaglioma tumor; experiment: SP0001 tumor-bearing NPG mouse model, tumor growth inhibition; format: in vivo, NPG immunodeficient mice; details: for tumor volume inhibition rate: end of experiment; for tumor size at end of experiment: intragastric once a day, 24 days
Experimental: as §2

SCA-S01 cells = experiment: CCK8 cell proliferation inhibition, spinaglioma cells SCA-S01; format: cell-based, human; details: cytarabine 24, 48, 96 hours, BS 24, 48 hours
Experimental: as §1, with “The medium was removed from the wells, and the corresponding drug solution of each concentration was added with 100 μL per well.” left out
The well plate was put back into the incubator, and cell proliferation was tested after 24 and 48 hours, respectively. […] The well plate was taken out of the incubator, the cell medium was removed from the wells to be tested, 110 μL of CCK8 working solution was added to each well, the incubation was continued for 2 hours, then the absorbance at 450 nm was measured on an enzyme-linked immunosorbent assay (ELISA) reader, an inhibition rate corresponding to each concentration was calculated, and IC50 values at corresponding time were calculated using GraphPad 7.0 software. […]

[3] = test system: primary spinaglioma cell line SP0001; experiment: Live and dead cell fluorescence staining of SP0001 cells; format: cell-based, human; details: 6 μM, treated 48 hours
Experimental: Fluorescence staining was performed using live and dead cell staining technology on the primary spinaglioma cell line SP0001 treated with the benzisoselenazole compound for 48 hours.

[4] = SP0001 cells, CCK8, 24 and 48 hours

SMILES: O=c1c2ccccc2[se]n1CCCCn1[se]c2ccccc2c1=O [BS]
- growth inhibition / killing effect on SP0001 cells (Spinaglioma cells SP0001): significant killing effect
- inhibitory effect on proliferation of patient-derived spinaglioma cell line (Spinaglioma cells SP0001; [4]): obvious inhibitory effect
- sensitivity of patient-derived spinaglioma to the compound (Spinaglioma cells SP0001; [4]): sensitive
- weight change during administration ([1]; BSM and BSH groups (180 and 360 mg/Kg)): did not show any weight loss; also recorded: no significant change in body weight
- toxic and side effects on NPG mice [1]: no significant toxic and side effects
- tumor volume inhibition rate ([2]; BS high dose 360 mg/Kg): 45.99%
- tumor volume inhibition rate ([2]; BS low dose 90 mg/Kg): 14.01%
- tumor volume inhibition rate ([2]; BS medium dose 180 mg/Kg): 25.89%
- tumor size at end of experiment ([2]; BSH high dose 360 mg/Kg): 82.56±41.40 mm^3
- tumor size at end of experiment ([2]; BSL low dose 90 mg/Kg): 131.44±39.81 mm^3
- tumor size at end of experiment ([2]; BSM medium dose 180 mg/Kg): 113.29±57.21 mm^3
- killing effect on SCA-S01 cells (SCA-S01 cells): strong killing effects
- killing effect [3]: 90%

SMILES: Cn1nnc2c(C(N)=O)ncn2c1=O [TMZ, temozolomide, reference compound]
- weight loss compared to the Control group (decrease) ([1]; TMZ group 30 mg/Kg): over 20%
- toxic and side effects on NPG mice [1]: significant toxic and side effects; also recorded: obvious toxicity
- tumor volume inhibition rate ([2]; TMZ group 30 mg/Kg): 82.59%
- tumor size at end of experiment ([2]; TMZ group 30 mg/Kg): 26.61±10.30 mm^3

SMILES: Nc1ccn([C@@H]2O[C@H](CO)[C@@H](O)[C@@H]2O)c(=O)n1 [cytarabine, reference compound]
- growth inhibition / killing effect on SP0001 cells (Spinaglioma cells SP0001): cannot significantly inhibit the growth
- killing effect on SCA-S01 cells (SCA-S01 cells): weak killing effect
